One assay has as its target T1, QKF-KAT6B (Homo sapiens, UniProt Q8WYB5).
T1 construct: purchased SignalChem K315-381BG
The assay is described as follows: Acetyltransferase biochemical assay (AlphaScreen), KAT6B. The settings on record: 8 nM KAT6B, 1 μM AcCoA, 100 nM histone H3.1. An excerpt:
KAT6B was obtained from SignalChem, catalog ID: K315-381BG

In assay [1] the test system is acetylation of the histone H3K23 marker in U2OS cells. As to the kind of experiment: Histone H3 Lysine 23 Acetylation Biomarker Assay. The format is cell-based. The settings on record: Homo sapiens, 24 hours incubation, read-out: IC50, inhibition of histone H3K23 acetylation. As for the experimental part: Compounds were tested for their ability to inhibit acetylation of the histone H3K23 marker in the following assay:
The cell line U2OS was seeded at a density of 9,000 cells per well in 96 well optical quality tissue culture plates in RPMI medium and 10% foetal bovine serum, and allowed to adhere for 24 hours under standard culture conditions (37 degree Celsius, 5% CO2). At the end of this period the medium was aspirated. […] After incubation for 24 hours, the cells were fixed with 3.7% formaldehyde in PBS for 20 minutes at room temperature, washed (5×5 minutes) with phosphate buffer saline containing 0.1% Tween 20 and blocked with Odyssey blocking buffer (LI-COR, Lincoln, Nebr.) containing 0.1% TritonX100. Anti-H3K23ac specific antibody (Abcam ab177275) in Odyssey blocking buffer containing 0.1% Tween 20 was added and incubated for 16 hours at 4 degree Celsius. After washing (as above), a secondary antibody labelled with Alexa647 dye (LifeTechnologies) and Hoechst 33342 (1 μg/mL, SigmaAldrich) were added for 1 hour incubation. Plates were washed as previously and read on a PerkinElmer Phenix high content imaging platform. Using a Columbus image analysis pipeline, individual nuclei were located by Hoechst 33342 stain and the acetylation level was calculated from the Alexa647-related intensity in the same area.

Assay [2] relates to acetylation of the histone H3 Lysine 14 marker in U2OS cells. The assay is described as follows: Histone H3 Lysine 14 Acetylation Biomarker Assay. The format is cell-based. To be noted: Homo sapiens, serum free medium, 24 hours incubation, read-out: IC50, inhibition of histone H3 Lysine 14 acetylation. As for the experimental part: Compounds were tested for their ability to inhibit acetylation of the histone H3 Lysine 14 marker in the following assay:
The cell line U2OS was seeded at a density of 3,000 cells per well in 384-well optical quality tissue culture plates in RPMI medium supplemented with 10% foetal bovine serum and 10 mM Hepes. The cells were allowed to adhere for 24 hours under standard culture conditions (37 degree Celsius, 5% CO2). At the end of this period the cells were washed with serum free medium. […] After incubation for 24 hours, the cells were fixed with 4% formaldehyde in PBS for 15 minutes at room temperature, washed with phosphate buffer saline and blocked with blocking buffer containing 0.2% TritonX100 and 2% BSA. Anti-H3K14ac specific antibody (Cell Signalling Technologies) in blocking buffer was added and incubated overnight at 4 degree Celsius. After washing, a secondary antibody labelled with AlexaFluor 488 dye (ThermoFisher) and Hoechst 33342 (1 μg/mL, Life Technologies) were added for 2 hours incubation at room temperature. Plates were washed and read on a PerkinElmer Opera HCS high content imaging platform. Using a Columbus image analysis pipeline, individual nuclei were located by Hoechst 33342 stain and the acetylation level was calculated from the AlexaFluor 488-related intensity in the same area.

Assay [3] relates to histone H2A.Z Lysine 7 acetylation marker in U2OS cells. As to the kind of experiment: H2A.Z Lysine 7 Acetylation Biomarker Assay. The assay is classed as cell-based. To be noted: Homo sapiens, serum free medium, 24 hours incubation, read-out: IC50, inhibition of histone H2A.Z Lysine 7 acetylation. As for the experimental part:
Compounds were tested for their ability to inhibit the histone H2A.Z Lysine 7 acetylation marker in the following assay:
The cell line U2OS was seeded at a density of 3,000 cells per well in 384-well optical quality tissue culture plates in RPMI medium supplemented with 10% foetal bovine serum and 10 mM Hepes. The cells were allowed to adhere for 24 hours under standard culture conditions (37 degree Celsius, 5% CO2). At the end of this period the cells were washed with serum free medium. […] 2018, at 30 μM concentration. After incubation for 24 hours, the cells were fixed with 4% formaldehyde in PBS for 15 minutes at room temperature, washed with phosphate buffer saline and blocked with blocking buffer containing 0.2% TritonX100 and 2% BSA. Anti-H2A.ZK7ac specific antibody (Abcam) in blocking buffer was added and incubated overnight at 4 degree Celsius. After washing, a secondary antibody labelled with AlexaFluor 488 dye (ThermoFisher) and Hoechst 33342 (1 μg/mL, Life Technologies) were added for 2 hours incubation at room temperature. Plates were washed and read on a PerkinElmer Opera HCS high content imaging platform. Using a Columbus image analysis pipeline, individual nuclei were located by Hoechst 33342 stain and the acetylation level was calculated from the AlexaFluor 488-related intensity in the same area.

The target in another assay is T2, MOF-KAT8 (Homo sapiens, UniProt Q9H7Z6).
T2 sequence (Q9H7Z6 with tags, fused parts or gaps): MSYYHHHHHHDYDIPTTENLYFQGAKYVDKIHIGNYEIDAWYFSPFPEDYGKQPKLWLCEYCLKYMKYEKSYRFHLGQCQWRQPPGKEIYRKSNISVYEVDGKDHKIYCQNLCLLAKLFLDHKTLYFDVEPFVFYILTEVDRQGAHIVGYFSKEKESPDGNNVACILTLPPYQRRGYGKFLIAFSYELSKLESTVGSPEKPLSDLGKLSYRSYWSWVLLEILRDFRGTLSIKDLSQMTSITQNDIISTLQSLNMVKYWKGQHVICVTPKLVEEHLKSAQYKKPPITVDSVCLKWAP
The assay is described as follows: biochemical.

The target of the next assay is TIP60-KAT5 (Homo sapiens, UniProt Q92993). As to the kind of experiment: Acetyltransferase biochemical assay (AlphaScreen), KAT5.
TIP60-KAT5, sequence (Q92993 with tags, fused parts or gaps isoform Q92993-2): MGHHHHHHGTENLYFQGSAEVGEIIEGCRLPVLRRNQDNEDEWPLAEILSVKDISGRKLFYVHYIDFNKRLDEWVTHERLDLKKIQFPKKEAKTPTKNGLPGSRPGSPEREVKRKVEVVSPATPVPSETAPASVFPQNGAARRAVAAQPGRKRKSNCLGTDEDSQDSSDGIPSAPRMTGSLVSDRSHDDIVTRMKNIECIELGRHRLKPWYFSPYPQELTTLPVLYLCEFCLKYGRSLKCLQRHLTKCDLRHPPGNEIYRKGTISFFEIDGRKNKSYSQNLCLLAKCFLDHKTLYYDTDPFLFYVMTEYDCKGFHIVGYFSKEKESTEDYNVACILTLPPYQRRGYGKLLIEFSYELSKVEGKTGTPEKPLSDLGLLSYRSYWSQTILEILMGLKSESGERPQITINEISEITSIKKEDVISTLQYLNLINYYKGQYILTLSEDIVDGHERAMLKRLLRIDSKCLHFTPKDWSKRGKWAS
The target in the next assay is HBO-KAT7 (Homo sapiens, UniProt O95251). The assay is described as follows: Acetyltransferase biochemical assay (AlphaScreen), KAT7.
HBO-KAT7, sequence (O95251 with tags, fused parts or gaps): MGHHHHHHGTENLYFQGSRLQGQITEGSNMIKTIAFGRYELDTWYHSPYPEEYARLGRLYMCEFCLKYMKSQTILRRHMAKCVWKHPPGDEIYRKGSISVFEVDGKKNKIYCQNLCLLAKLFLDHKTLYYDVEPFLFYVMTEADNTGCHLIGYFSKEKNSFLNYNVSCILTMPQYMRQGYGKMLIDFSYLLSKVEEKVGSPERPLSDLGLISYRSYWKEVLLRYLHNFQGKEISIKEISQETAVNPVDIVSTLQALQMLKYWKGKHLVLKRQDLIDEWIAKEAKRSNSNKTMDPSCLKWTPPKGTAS
For a further assay, the target named is MOZ-KAT6A (Homo sapiens, UniProt Q92794, A567V). The assay is described as follows: Acetyltransferase biochemical assay (AlphaScreen), KAT6A.
MOZ-KAT6A, sequence (Q92794 with tags, fused parts or gaps A567V): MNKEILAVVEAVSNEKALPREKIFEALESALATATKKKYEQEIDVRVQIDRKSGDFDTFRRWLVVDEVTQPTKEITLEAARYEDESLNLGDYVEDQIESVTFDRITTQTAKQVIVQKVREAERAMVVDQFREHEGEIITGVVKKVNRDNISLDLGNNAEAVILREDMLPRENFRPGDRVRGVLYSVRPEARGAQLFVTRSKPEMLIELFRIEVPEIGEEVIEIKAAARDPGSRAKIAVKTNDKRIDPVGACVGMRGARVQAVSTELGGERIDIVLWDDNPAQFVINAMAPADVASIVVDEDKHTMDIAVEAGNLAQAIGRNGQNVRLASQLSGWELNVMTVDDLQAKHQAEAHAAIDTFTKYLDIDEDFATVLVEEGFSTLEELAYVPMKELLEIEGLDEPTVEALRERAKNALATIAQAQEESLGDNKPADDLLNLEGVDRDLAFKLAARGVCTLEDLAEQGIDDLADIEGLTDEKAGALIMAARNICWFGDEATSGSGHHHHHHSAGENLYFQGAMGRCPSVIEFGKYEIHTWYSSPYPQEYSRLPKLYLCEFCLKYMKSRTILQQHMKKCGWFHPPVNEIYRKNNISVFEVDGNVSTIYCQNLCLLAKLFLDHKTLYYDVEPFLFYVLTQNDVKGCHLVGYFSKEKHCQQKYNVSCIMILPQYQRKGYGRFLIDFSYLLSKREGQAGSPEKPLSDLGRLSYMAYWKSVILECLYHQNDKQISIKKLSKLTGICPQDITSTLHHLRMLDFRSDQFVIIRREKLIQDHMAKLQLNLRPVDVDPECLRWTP

This note sets out measurements from patent publication US12365655B2, “Compounds” (CTXT PTY LTD, priority 2018, dated 2025).

T1 sequence (Q8WYB5 whole entry): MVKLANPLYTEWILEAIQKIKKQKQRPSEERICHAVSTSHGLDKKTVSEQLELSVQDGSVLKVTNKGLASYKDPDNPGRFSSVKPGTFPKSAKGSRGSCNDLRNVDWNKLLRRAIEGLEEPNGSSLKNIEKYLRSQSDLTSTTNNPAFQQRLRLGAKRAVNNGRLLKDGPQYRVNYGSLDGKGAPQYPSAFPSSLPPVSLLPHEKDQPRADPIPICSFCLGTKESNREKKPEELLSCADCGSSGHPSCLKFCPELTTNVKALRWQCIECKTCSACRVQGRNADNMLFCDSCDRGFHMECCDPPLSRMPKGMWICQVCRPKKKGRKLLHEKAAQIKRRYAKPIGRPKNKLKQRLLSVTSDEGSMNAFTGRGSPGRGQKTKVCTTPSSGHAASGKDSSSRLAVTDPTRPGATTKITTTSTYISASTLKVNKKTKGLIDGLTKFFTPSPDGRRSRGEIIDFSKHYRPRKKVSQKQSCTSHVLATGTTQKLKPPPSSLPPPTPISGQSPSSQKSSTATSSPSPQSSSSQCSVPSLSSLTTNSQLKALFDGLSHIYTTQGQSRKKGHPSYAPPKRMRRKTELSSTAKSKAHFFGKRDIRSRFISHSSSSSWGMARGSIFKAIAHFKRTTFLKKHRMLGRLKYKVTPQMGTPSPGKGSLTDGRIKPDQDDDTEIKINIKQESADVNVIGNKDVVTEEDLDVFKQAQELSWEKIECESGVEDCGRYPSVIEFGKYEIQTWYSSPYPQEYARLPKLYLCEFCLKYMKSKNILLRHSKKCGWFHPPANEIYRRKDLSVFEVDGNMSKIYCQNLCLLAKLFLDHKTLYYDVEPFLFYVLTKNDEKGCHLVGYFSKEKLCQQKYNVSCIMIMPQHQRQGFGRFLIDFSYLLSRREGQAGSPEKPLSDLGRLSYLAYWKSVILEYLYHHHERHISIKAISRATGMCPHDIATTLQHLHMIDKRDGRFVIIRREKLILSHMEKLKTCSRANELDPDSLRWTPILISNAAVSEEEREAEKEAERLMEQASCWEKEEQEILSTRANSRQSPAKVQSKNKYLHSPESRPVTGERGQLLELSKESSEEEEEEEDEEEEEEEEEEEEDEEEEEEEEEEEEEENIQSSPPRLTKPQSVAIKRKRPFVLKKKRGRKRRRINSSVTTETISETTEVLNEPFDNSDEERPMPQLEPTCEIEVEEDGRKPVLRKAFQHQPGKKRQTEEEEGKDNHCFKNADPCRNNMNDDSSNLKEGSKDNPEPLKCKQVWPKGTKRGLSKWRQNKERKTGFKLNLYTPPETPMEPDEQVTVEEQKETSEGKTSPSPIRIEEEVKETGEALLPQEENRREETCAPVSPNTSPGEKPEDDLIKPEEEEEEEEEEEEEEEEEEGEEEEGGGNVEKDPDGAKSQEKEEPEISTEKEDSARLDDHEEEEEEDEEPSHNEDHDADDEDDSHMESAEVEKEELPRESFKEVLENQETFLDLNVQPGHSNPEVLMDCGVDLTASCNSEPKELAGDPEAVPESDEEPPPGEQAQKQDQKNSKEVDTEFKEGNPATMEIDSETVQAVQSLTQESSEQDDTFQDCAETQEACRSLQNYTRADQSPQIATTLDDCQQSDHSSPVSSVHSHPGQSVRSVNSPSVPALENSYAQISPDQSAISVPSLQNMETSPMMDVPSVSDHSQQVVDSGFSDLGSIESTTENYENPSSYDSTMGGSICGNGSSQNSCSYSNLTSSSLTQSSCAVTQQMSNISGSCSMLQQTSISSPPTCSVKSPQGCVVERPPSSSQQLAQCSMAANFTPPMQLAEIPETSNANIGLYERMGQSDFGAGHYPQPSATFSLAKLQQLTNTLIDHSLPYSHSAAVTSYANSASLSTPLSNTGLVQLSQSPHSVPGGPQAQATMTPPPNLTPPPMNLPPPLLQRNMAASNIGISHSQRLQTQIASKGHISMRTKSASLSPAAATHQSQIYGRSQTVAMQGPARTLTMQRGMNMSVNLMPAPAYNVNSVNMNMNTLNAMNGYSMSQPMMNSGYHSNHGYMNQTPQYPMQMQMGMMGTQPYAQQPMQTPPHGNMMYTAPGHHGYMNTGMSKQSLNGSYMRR

`CCc1ccc(OC)c(S(=O)(=O)Nc2noc3c(-c4ccccc4)cccc23)c1` [Example 178, 5-Ethyl-2-methoxy-N-(7-phenylbenzo[d]isoxazol-3-yl)benzenesulfonamide]: the half-maximal inhibitory concentration (IC50) against QKF-KAT6B is 2.46 µM; in assay [1], above 10 µM; in assay [2] it was 3.07 µM; in assay [3] it was 5.59 µM; at MOF-KAT8 it was 0.77 µM; on TIP60-KAT5, 7.54 µM. In addition, the IC50 worked out at 0.482 µM against HBO-KAT7 and 1.44 µM on MOZ-KAT6A.
As for `COCc1cc2onc(NS(=O)(=O)c3ccc(OC)cc3OC)c2cc1C` [Example 166, 2,4-dimethoxy-N-(6-(methoxymethyl)-5-methylbenzo[d]isoxazol-3-yl)benzenesulfonamide], the IC50 at QKF-KAT6B is 0.227 µM; in assay [1], 0.398 µM; in assay [2], 3.69 µM; in assay [3], 33.3 µM; against MOF-KAT8 it was 2.92 µM; on TIP60-KAT5, 3.09 µM. Also, the half-inhibitory concentration (IC50) is 0.328 µM on HBO-KAT7 and 0.123 µM against MOZ-KAT6A.
Consider `COc1cccc2onc(NS(=O)(=O)c3cccc4cc(C)cnc34)c12` [Example 73, N-(4-methoxybenzo[d]isoxazol-3-yl)-3-methyl quinoline-8-sulfonamide], for which the IC50 against QKF-KAT6B is 4.05 µM; in assay [1], above 10 µM; in assay [2], 12.5 µM; in assay [3] it was 36.7 µM; on MOF-KAT8, 3.46 µM; against TIP60-KAT5 it was 2.16 µM. The values for the half-inhibitory concentration (IC50) at HBO-KAT7 and at MOZ-KAT6A were 0.508 µM and 4.55 µM, respectively.
As to `COc1cccc(OC)c1S(=O)(=O)Nc1noc2cc(-c3ncco3)cc(OC)c12` [Example 144, 2,6-Dimethoxy-N-(4-methoxy-6-(oxazol-2-yl)benzo[d]isoxazol-3-yl)benzenesulfonamide], the IC50 was found to be 0.057 µM at QKF-KAT6B; 0.128 µM in assay [1]; 2.95 µM in assay [2]; 18.8 µM in assay [3]; 11.5 µM at TIP60-KAT5; 0.286 µM at HBO-KAT7. This compound also displayed an IC50 against MOZ-KAT6A of 0.261 µM.
For `COCc1cc(OC)c2c(NS(=O)(=O)c3c(OC)cccc3OC)noc2c1` [Example 173, 2,6-Dimethoxy-N-(4-methoxy-6-(methoxymethyl)benzo[d]isoxazol-3-yl)benzenesulfonamide], the IC50 at QKF-KAT6B turned out to be 0.04 µM; in assay [1] it was 0.02 µM; in assay [2] it was 0.533 µM; in assay [3] it was 26.2 µM; at MOF-KAT8, 3.52 µM; at TIP60-KAT5 it was 4.05 µM. The concentration for half-maximal inhibition (IC50) was 0.169 µM on HBO-KAT7 and 0.015 µM at MOZ-KAT6A.
Consider `COCc1cc(OC)c2c(NS(=O)(=O)c3ccc(OC)c4cccnc34)noc2c1` [Example 162, 5-methoxy-N-(4-methoxy-6-(methoxymethyl)benzo[d]isoxazol-3-yl)quinoline-8-sulfonamide], for which the concentration for half-maximal inhibition (IC50) was 0.18 µM against QKF-KAT6B; 0.144 µM in assay [1]; 1.53 µM in assay [2]; 29.5 µM in assay [3]; 10.6 µM against MOF-KAT8; 14 µM at TIP60-KAT5. Also, the values for the IC50 against HBO-KAT7 and against MOZ-KAT6A were 0.969 µM and 0.147 µM, respectively.
In the case of `COCc1cc2onc(NS(=O)(=O)c3c(OC)cccc3OC)c2cc1C` [Example 97, 2,6-Dimethoxy-N-(6-(methoxymethyl)-5-methylbenzo[d]isoxazol-3-yl)benzenesulfonamide], the IC50 is 0.049 µM against QKF-KAT6B; 0.045 µM in assay [1]; 1.09 µM in assay [2]; 28 µM in assay [3]; 6.18 µM against TIP60-KAT5; 0.444 µM on HBO-KAT7. The compound further showed a 50% inhibitory concentration (IC50) on MOZ-KAT6A of 0.061 µM.
Regarding `COc1cc(-c2ccccc2)cc(OC)c1S(=O)(=O)Nc1noc2cccc(OC)c12` [Example 95, 3,5-Dimethoxy-N-(4-methoxybenzo[d]isoxazol-3-yl)-[1,1-biphenyl]-4-sulfonamide], the IC50 against QKF-KAT6B is 1.64 µM; in assay [1] it was above 10 µM; in assay [2], 9.09 µM; in assay [3] it was above 40 µM; against MOF-KAT8, 6.45 µM; on TIP60-KAT5, 14 µM. Moreover, the 50% inhibitory concentration (IC50) against HBO-KAT7 was determined as 0.754 µM; at MOZ-KAT6A it was 0.43 µM.
Regarding `COc1cccc(OC)c1S(=O)(=O)Nc1noc2cc(-c3ncco3)ccc12` [Example 147, 2,6-Dimethoxy-N-(6-(oxazol-2-yl)benzo[d]isoxazol-3-yl)benzenesulfonamide], the IC50 is above 125 µM at QKF-KAT6B; above 10 µM in assay [1]; above 40 µM in assay [2]; above 40 µM in assay [3]; above 125 µM against TIP60-KAT5; above 125 µM on HBO-KAT7. On MOZ-KAT6A, this compound displayed a 50% inhibitory concentration (IC50) of 93.6 µM.
